Assay results taken from patent publication US20250332116A1, “CARBON-BASED ANTI VIRAL NANOPARTICLES” (PORTO CONTE RICERCHE SOCIETA A RESP[…], priority 2021, published 2025).
≈ marks a conversion by molar mass, not a printed value.

How the values were obtained:
[1] = test system: SARS-CoV-2; assay: Antiviral activity assay (SARS-CoV-2 nucleoprotein ELISA, CPE observation) in Vero E6 cells; type: cell-based; details: Severe acute respiratory syndrome coronavirus 2, Vero C1008
[2] = MTS cytotoxicity assay; details: African green monkey (Cercopithecus aethiops), Vero E6 cells

Compound: CCC(CC)COC(=O)[C@H](C)N[P@](=O)(OC[C@H]1O[C@@](C#N)(c2ccc3c(N)ncnn23)[C@H](O)[C@@H]1O)Oc1ccccc1 [Remdesivir]
- activity at 0.05 µg/mL ([1]; 0.05 μg mL^−1, m.o.i. 0.01, 72 hours, ELISA, untreated infected control =100%, read-out: Antiviral activity (% viral NC protein, compared to untreated control)): 107 ± 23%
- activity at 0.24 µg/mL ([1]; 0.24 μg mL^−1, m.o.i. 0.01, 72 hours, ELISA, untreated infected control =100%, read-out: Antiviral activity (% viral NC protein, compared to untreated control)): 96 ± 10%
- activity at 1.2 µg/mL ([1]; 1.2 μg mL^−1, m.o.i. 0.01, 72 hours, ELISA, untreated infected control =100%, read-out: Antiviral activity (% viral NC protein, compared to untreated control)): 73 ± 9%
- activity at 6 µg/mL ([1]; 6 μg mL^−1, m.o.i. 0.01, 72 hours, ELISA, untreated infected control =100%, read-out: Antiviral activity (% viral NC protein, compared to untreated control)): 14 ± 7%
- IC50 ([1]; Vero E6, m.o.i. 0.01, 72 hours, nucleoprotein ELISA, read-out: 50% inhibitory concentration (IC50), SARS-CoV-2 viral replication): 1.9 µg/mL (≈ 3.15 µM)
- CC50 at 72 h [2]: > 120 µg/mL
- viability at 72 h, 2.4 μg mL^−1 [2]: 94.1 ± 1%
- viability at 72 h, 12 μg mL^−1 [2]: 98.9 ± 6.7%
- viability at 72 h, 60 μg mL^−1 [2]: 82.1 ± 2.2%
